Experimental data published in US5225528A, “Cyclic hexapeptide oxytocin antagonists” (priority 1990, dated 1993).
Where a name gives a salt, the structure may show the parent alone. Read-outs that look alike come from different tables or passages of the source. Numbered stars: 1 amine (or outer) side, 2 acyl side, 3 side chain; on linkers, the order of the positions; unused ones are H or OH. Square brackets hold non-standard residues; d marks the D form. Peptide text beside a SMILES is read from it. * marks the point of attachment. ξ: configuration not given here. dPip(4-aza,4-Cbz) = O=C(O)[C@H]1CN(C(=O)OCc2ccccc2)CCN1; X10 = O=C(O)CN1CCN([*:1])[C@H](C(=O)[*:2])C1; X8 = Cn1c[n+](C)cc1C[C@@H](N[*:1])C(=O)[*:2]; d1Nal = N[C@H](Cc1cccc2ccccc12)C(=O)O; d2Nal = N[C@H](Cc1ccc2ccccc2c1)C(=O)O; dNMehPhe = CN[C@H](CCc1ccccc1)C(=O)O; d(aIle) = CC[C@H](C)[C@@H](N)C(=O)O; X12 = O=C([C@@H]1CCCNN1[*:1])[*:2]; NMeI = CC[C@H](C)[C@H](NC)C(=O)O; X6 = O=C([C@H]1CCCNN1[*:1])[*:2]; dNMeF = CN[C@H](Cc1ccccc1)C(=O)O; ξmTyr = NC(Cc1cccc(O)c1)C(=O)O; Pip = O=C(O)[C@@H]1CCCCN1; dPip = O=C(O)[C@H]1CCCCN1; ClZ = O=C(OCc1ccccc1Cl)*; Boc = CC(C)(C)OC(=O)*; Acm = CC(=O)NC*

Tests used:
[1] = target: T1, uterine OT receptors (Rattus norvegicus, UniProt P70536); assay: [^3 H]OT binding to uterine OT receptors, crude membrane preparation of uteri from DES-treated rats; conditions: for IC50: rat uterus membranes, 1 nM [^3 H]OT, read-out: Receptor Binding Results IC50 (nM) [^3 H]OT; for inhibition at 1 µM: 1 h, @ 1,000 (nM), read-out: [^3 H]OT: percent inhibition of radioligand at the given concentration
T1 construct: from tissue; host or cells: uterus of DES-treated rats, crude membranes
T1 sequence (P70536 1-388): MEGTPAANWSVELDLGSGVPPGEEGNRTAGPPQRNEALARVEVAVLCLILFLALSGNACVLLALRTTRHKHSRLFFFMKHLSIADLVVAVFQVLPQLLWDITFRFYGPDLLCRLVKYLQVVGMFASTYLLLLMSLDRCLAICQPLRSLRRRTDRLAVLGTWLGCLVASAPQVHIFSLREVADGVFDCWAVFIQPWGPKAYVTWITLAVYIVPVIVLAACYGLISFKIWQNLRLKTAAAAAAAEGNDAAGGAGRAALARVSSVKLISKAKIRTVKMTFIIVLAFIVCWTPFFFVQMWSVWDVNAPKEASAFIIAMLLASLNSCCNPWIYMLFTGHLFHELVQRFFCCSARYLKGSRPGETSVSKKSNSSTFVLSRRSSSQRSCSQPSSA
Method: Competition studies were conducted at equilibrium (60 minutes; 22° C.) using 1 nM [^3 H]OT in the following assay buffer: 50 mM Tris-HCl, 5 mM MgCl2, and 0.1% BSA, pH 7.4.

[2] = target: T2, AVP-V2 sites (Rattus norvegicus, UniProt Q00788); assay: [^3 H]AVP binding to crude membrane preparation of male rat kidney medulla (AVP-V2 sites); conditions: for inhibition at 10 µM: @ 10,000 (nM)
T2 construct: male rat liver (AVP-V1 sites) or kidney medulla (AVP-V2 sites); from tissue; host or cells: male rat kidney medulla, crude membranes
Method: (§1) Nonspecific binding (5-10% of the total binding) was determined using 10 μM unlabeled AVP, and the binding reaction was terminated by filtration as described above for the [^3 H]OT binding assay.

[3] = target: T3, AVP-V1 sites (Rattus norvegicus, UniProt P30560); assay: [^3 H]AVP binding to crude membrane preparation of male rat liver (AVP-V1 sites)
T3 construct: crude membrane preparation of male rat liver (AVP-V1 sites); from tissue; host or cells: male rat liver, crude membranes
Method: as §1

[4] = rat kidney medulla membranes, 2 nM [^3 H]AVP, read-out: Receptor Binding Results IC50 (nM) [^3 H]-AVP-V2
[5] = Receptor Binding Results IC50 (nM) [^3 H]-AVP-V1
[6] = 0.5 h, read-out: [^3 H]-AVP-V2: percent inhibition of radioligand at the given concentration
[7] = Receptor Binding Results IC50 (nM) [^3 H]-AVP-V2
[8] = read-out: Receptor Binding Results IC50 (nM) [^3 H]-AVP-V2
[9] = read-out: Receptor Binding Results IC50 (nM) [^3 H]-AVP-V1

T2 sequence (Q00788 whole entry): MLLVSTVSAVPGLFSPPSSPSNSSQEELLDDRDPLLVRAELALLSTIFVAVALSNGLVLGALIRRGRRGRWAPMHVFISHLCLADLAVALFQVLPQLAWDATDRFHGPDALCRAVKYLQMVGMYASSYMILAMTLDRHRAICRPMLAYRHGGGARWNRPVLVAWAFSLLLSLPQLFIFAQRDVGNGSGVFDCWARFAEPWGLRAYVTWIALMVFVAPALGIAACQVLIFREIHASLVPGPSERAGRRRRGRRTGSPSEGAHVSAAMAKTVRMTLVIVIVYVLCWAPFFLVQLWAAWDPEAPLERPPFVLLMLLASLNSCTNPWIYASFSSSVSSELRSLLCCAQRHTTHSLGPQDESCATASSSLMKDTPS
T3 sequence (P30560 whole entry): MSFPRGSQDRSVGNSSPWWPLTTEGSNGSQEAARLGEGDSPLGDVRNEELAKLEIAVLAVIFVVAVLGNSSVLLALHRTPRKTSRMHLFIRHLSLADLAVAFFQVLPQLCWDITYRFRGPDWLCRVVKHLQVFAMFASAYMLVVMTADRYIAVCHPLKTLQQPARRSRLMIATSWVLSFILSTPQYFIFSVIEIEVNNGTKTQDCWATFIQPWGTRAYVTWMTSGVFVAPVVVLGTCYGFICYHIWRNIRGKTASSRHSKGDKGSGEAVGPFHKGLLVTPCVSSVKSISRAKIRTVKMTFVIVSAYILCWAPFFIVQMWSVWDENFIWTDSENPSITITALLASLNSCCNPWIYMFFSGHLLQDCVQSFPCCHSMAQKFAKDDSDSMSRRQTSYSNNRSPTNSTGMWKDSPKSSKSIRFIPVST

Compound: CC[C@H](C)[C@H]1C(=O)N2CCCC[C@@H]2C(=O)N2CCCC[C@H]2C(=O)N(C)[C@H](Cc2ccccc2)C(=O)N2CCC[C@H]2C(=O)N[C@H](Cc2ccccc2)C(=O)N1C [Example 105, c-[D-Phenylalanyl-N-methyl-L-isoleucyl-D-pipecolyl-L-pipecolyl-N-methyl-D-phenylalanyl-L-prolyl]] (cyclo([NMeI][dPip][Pip][dNMeF]P[dF]))
- IC50 [1]: > 10000 nM
- IC50 [2, 4]: > 10000 nM
- IC50 [3, 5]: > 10000 nM

Compound: C[C@@H]1NC(=O)[C@@H](Cc2ccccc2)NC(=O)[C@@H]2CCCN2C(=O)[C@@H](Cc2ccccc2)N(C)C(=O)[C@@H]2CCCCN2C(=O)[C@H]2CCCCN2C1=O [Example 9, Cyclo[D-phenylalanyl-L-alanyl-D-pipecolyl-L-pipecolyl-D-(N^α methyl)phenylalanyl-L-prolyl]] (cyclo(A[dPip][Pip][dNMeF]P[dF]))
- IC50 [1]: > 10000 nM
- IC50 [2, 4]: > 10000 nM
- IC50 [3, 5]: > 10000 nM

Compound: CC[C@H](C)[C@@H]1NC(=O)[C@@H](Cc2c[nH]c3ccccc23)NC(=O)[C@@H]2CCCN2C(=O)[C@@H](Cc2ccccc2)N(C)C(=O)[C@@H]2CN(CC(=O)O)CCN2C(=O)[C@H]2CCCCN2C1=O [Example 181, c-[D-Tryptophanyl-L-isoleucinyl-D-pipecolyl-L-piperazin-2-yl(4-carboxymethyl)-D-(N^α -Me)phenylalanyl-L-prolyl]] (cyclo(I[dPip][X10][dNMeF]P[dW]))
- IC50 [1]: 100 nM
- inhibition at 10 µM [2, 6]: 73%
- IC50 [3, 5]: > 10000 nM

Compound: CC[C@H](C)[C@@H]1NC(=O)[C@@H](Cc2c[nH]c3ccccc23)NC(=O)[C@@H]2CCCN2C(=O)[C@@H](Cc2ccccc2)N(C)C(=O)[C@H]2CN(C(=O)OCc3ccccc3)CCN2C(=O)[C@H]2CCCCN2C1=O [Example 91, c-[D-Tryptophanyl-L-isoleucinyl-D-pipecolyl-D-piperazin-2-yl(4-Cbz)-D-(N^α -methyl)phenylalanyl-L-prolyl]] (cyclo(I[dPip][dPip(4-aza,4-Cbz)][dNMeF]P[dW]))
- IC50 [1]: 93 nM
- IC50 [2, 7]: > 1000 nM
- IC50 [3, 5]: > 10000 nM

Compound: CC[C@H](C)[C@@H]1NC(=O)[C@@H](Cc2cccc3ccccc23)NC(=O)[C@@H]2CCCN2C(=O)[C@@H](Cc2cnc[nH]2)NC(=O)[C@@H]2CCCCN2C(=O)[C@H]2CCCCN2C1=O [Example 11, Cyclo[D-a-naphthalalanyl-L-isoleucyl-D-pipecolyl-L-pipecolyl-D-histidyl-L-prolyl]] (cyclo(I[dPip][Pip][dH]P[d1Nal]))
- IC50 [2, 7]: > 1000 nM
- IC50 [3, 5]: > 1000 nM

Compound: CC[C@H](C)[C@@H]1NC(=O)[C@@H](Cc2c[nH]c3ccccc23)NC(=O)[C@@H]2CCCN2C(=O)[C@@H](Cc2c[n+](C)cn2C)NC(=O)[C@@H]2CCCCN2C(=O)[C@H]2CCCCN2C1=O [Example 18, Cyclo[D-tryptophanyl-L-isoleucyl-D-pipecolyl-L-pipecolyl-D-[im-(CH3)2]^+ histidyl-L-prolyl] trifluoroacetate] (cyclo(I[dPip][Pip][X8]P[dW]))
- IC50 [1]: 450 nM
- IC50 [2, 4]: > 10000 nM
- IC50 [3, 5]: > 1000 nM

Compound: CC[C@H](C)[C@@H]1NC(=O)[C@@H](Cc2ccccc2)NC(=O)[C@@H]2CCCN2C(=O)[C@@H](CCCCNC(=O)OCc2ccccc2Cl)NC(=O)[C@@H]2CCCCN2C(=O)[C@H]2CCCCN2C1=O [Example 26, Cyclo[D-phenylalanyl-L-isoleucyl-D-pipecolyl-L-pipecolyl-D-(2-chlorocarbobenzyloxy)-lysyl-L-prolyl]] (cyclo(I[dPip][Pip][dK](ClZ)P[dF]))
- inhibition at 1 µM [1]: 86%
- IC50 [2, 4]: 10000 nM
- IC50 [3, 5]: 10000 nM

Compound: CC[C@H](C)[C@H]1C(=O)N2CCCC[C@@H]2C(=O)N2CCCC[C@H]2C(=O)N(C)[C@H](Cc2ccccc2)C(=O)N2CCC[C@H]2C(=O)N(C)[C@H](CCc2ccccc2)C(=O)N1C [Example 166] (cyclo([NMeI][dPip][Pip][dNMeF]P[dNMehPhe]))
- IC50 [1]: 23000 nM
- IC50 [2, 8]: > 3000 nM
- IC50 [3, 9]: > 3000 nM

Compound: CC[C@H](C)[C@@H]1NC(=O)C(Cc2c[nH]c3ccc(F)cc23)NC(=O)[C@@H]2CCCN2C(=O)[C@@H](Cc2c[nH]cn2)NC(=O)[C@@H]2CCCCN2C(=O)[C@H]2CCCCN2C1=O (single isomer, unassigned) [157 lower Rf]
- inhibition at 1 µM [1]: 6%
- IC50 [2, 8]: 26000 nM
- IC50 [3, 9]: 13000 nM

Compound: c-[D,L-3-(3-(1-Methyl)indolyl)alanyl-L-isoleucyl-D-pipecolyl-L-pipecolyl-D- histidyl-L-prolyl] [Example 153]
- [^3 H]OT: percent inhibition of radioligand at the given concentration ([1]; @ 10 (nM)): 48%
- [^3 H]-AVP-V2: percent inhibition of radioligand at the given concentration ([2]; @ 1,000 (nM)): 35%

Compound: C-[D,L-3-(3-(7-Methyl)indolyl)alanyl-L-isoleucyl-D-pipecolyl-L-pipecolyl-D- histidyl-L-prolyl] [Example 155]
- [^3 H]OT: percent inhibition of radioligand at the given concentration ([1]; @ 100 (nM)): 48%
- [^3 H]-AVP-V2: percent inhibition of radioligand at the given concentration ([2]; @ 1,000 (nM)): 30%

Compound: CN1C(=O)[C@@H]2CCCCN2C(=O)[C@H]2CCCCN2C(=O)[C@H](Cc2ccccc2)NC(=O)[C@@H](Cc2c[nH]c3ccccc23)NC(=O)[C@@H]2CCCN2C(=O)[C@H]1Cc1ccccc1 [Example 134, c-[D-Tryptophanyl-L-phenylalanyl-D-pipecolyl-L-pipecolyl-D-(N-methyl)phenylalanyl-prolyl]] (cyclo(F[dPip][Pip][dNMeF]P[dW]))
- IC50 [1]: 110 nM
- IC50 [2, 8]: 8000 nM

Compound: CC[C@H](C)[C@@H]1NC(=O)[C@@H](Cc2ccccc2)NC(=O)[C@@H]2CCCN2C(=O)[C@@H](Cc2ccccc2)NC(=O)[C@@H]2CCCNN2C(=O)[C@H]2CCCNN2C1=O [Example 96, c-[L-prolyl-D-phenylalanyl-L-isoleucyl-D-piperazyl-L-piperazyl-D-phenylalanyl]] (cyclo(I[X6][X12][dF]P[dF]))
- IC50 [1]: 245 nM
- IC50 [3, 9]: 2900 nM

Compound: CC[C@H](C)[C@@H]1NC(=O)[C@@H](Cc2ccc3ccccc3c2)NC(=O)[C@@H]2CCCN2C(=O)[C@@H](Cc2ccccc2)N(C)C(=O)[C@H](CCCCN)NC(=O)[C@H]2CCCCN2C1=O [Example 140, C-[D-2-Napthylalanyl-L-isoleucyl-D-pipecolyl-L-lysyl-D-(N-methyl)phenylalanyl-L-prolyl]] (cyclo([d2Nal]I[dPip]K[dNMeF]P))
- inhibition at 1 µM ([2]; 0.5 h, @ 1,000 (nM), read-out: [^3 H]-AVP-V2: percent inhibition of radioligand at the given concentration): 84%

Compound: CC[C@H](C)[C@@H]1NC(=O)[C@@H](Cc2ccccc2)NC(=O)[C@@H]2CCCN2C(=O)[C@@H](CSCNC(C)=O)NC(=O)[C@@H]2CCCN2C(=O)[C@H]2CCCN2C1=O [Example 58, c-[D-Phenylalanyl-L-isoleucyl-D-prolyl-L-prolyl-D-cysteinyl(Acm)-L-prolyl]] (cyclo([dC](Acm)P[dF]I[dP]P))
- IC50 [1]: > 10000 nM

Compound: CC[C@H](C)[C@@H]1NC(=O)[C@@H](Cc2ccc(O)cc2)NC(=O)[C@@H]2CCCN2C(=O)[C@@H](Cc2ccccc2)NC(=O)[C@@H]2CCCNN2C(=O)[C@H]2CCCNN2C1=O [Example 97] (cyclo([dY]I[X6][X12][dF]P))
- IC50 [1]: > 10000 nM

Compound: CC[C@H](C)[C@@H]1NC(=O)[C@@H](Cc2ccccc2)NC(=O)[C@@H]2CCCN2C(=O)[C@@H](CCC(N)=O)NC(=O)[C@@H]2CCCN2C(=O)[C@H]2CCCN2C1=O [Example 68, c-[D-Phenylalanyl-L-isoleucyl-D-prolyl-L-prolyl-D-α-glutaminyl-L-prolyl]] (cyclo([dF]I[dP]P[dQ]P))
- IC50 [1]: > 10000 nM

Compound: CCOc1ccc(C[C@H]2NC(=O)[C@@H]3CCCN3C(=O)[C@@H](Cc3ccccc3)NC(=O)[C@H](CC(N)=O)NC(=O)[C@@H](CCC(N)=O)NC(=O)[C@@H]([C@@H](C)CC)NC2=O)cc1 [Example 101] (cyclo(N[dF]P[dY](Et)[d(aIle)][dQ]))
- IC50 [1]: > 10000 nM

Compound: CC[C@H](C)[C@@H]1NC(=O)C(Cc2cn(C)c3ccccc23)NC(=O)[C@@H]2CCCN2C(=O)[C@@H](Cc2c[nH]cn2)NC(=O)[C@@H]2CCCCN2C(=O)[C@H]2CCCCN2C1=O (single isomer, unassigned) [153 lower Rf]
- inhibition at 10 µM [2, 6]: 73%

Compound: CC[C@H](C)[C@@H]1NC(=O)C(Cc2cccc(O)c2)NC(=O)[C@@H]2CCCN2C(=O)[C@@H](Cc2ccccc2)N(C)C(=O)[C@H](CCCCNC(=O)OC(C)(C)C)NC(=O)[C@H]2CCCCN2C1=O (stereo partly drawn) [Example 143, C-[D,L-meta-Tyrosinyl-L-isoleucyl-D-pipecolyl-L-(N-t-butyloxycarbonyl)lysyl-D-(N-methyl)phenylalanyl-L-prolyl]] (cyclo(I[dPip]K(Boc)[dNMeF]P[ξmTyr]))
- inhibition at 1 µM [1]: 68%
